This note sets out measurements from US11814367B2, “Inhibitors of glycogen synthase 1 (GYS1) and methods of use thereof” (Maze Therapeutics, Inc., priority 2021, dated 2023).

By pIC50 is commonly meant the negative decadic logarithm of the IC50, by convention in mol/L.

Test [1] has as its target hGYS1 enzyme (recombinant hGYS1/GN1 protein) (Homo sapiens (Human), UniProt P13807). The test can be described thus: GYS1 coupled enzyme assay (PK/LDH). The settings on record: hGYS1/GN1 50 nM, UDP-Glucose 0.8 mM, G6P 1 mM; geometric mean of at least 2 runs. In kind it is biochemical.
The test system of test [2] is hGYS1 enzyme / glycogen synthesis in HeLa cells. The test can be described thus: GYS1 cell based assay (glycogen synthesis, Glucose-glo). More on the design: species or system human. The note with it: Homo sapiens, HeLa, 24 h, 24 h incubation, 20 mM glucose, geometric mean of at least 2 runs. Put shortly: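 HeLa cells starved 24 h in medium containing only 1× Glutamax were plated onto compound in medium with 20 mM glucose (1% DMSO final) for 24 h, 37 °C, 5% CO2. Acid lysates were Tris-quenched, glucoamylase-digested (pH 5.3, 1 h, 37 °C) and read by Glucose-glo luminescence. IC50 came from Hill fits, as geometric mean of ≥2 runs.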

The structures appear in SMILES notation. pIC50: −log10 of the molar value.

Sequence of hGYS1 enzyme (recombinant hGYS1/GN1 protein) (P13807 whole entry): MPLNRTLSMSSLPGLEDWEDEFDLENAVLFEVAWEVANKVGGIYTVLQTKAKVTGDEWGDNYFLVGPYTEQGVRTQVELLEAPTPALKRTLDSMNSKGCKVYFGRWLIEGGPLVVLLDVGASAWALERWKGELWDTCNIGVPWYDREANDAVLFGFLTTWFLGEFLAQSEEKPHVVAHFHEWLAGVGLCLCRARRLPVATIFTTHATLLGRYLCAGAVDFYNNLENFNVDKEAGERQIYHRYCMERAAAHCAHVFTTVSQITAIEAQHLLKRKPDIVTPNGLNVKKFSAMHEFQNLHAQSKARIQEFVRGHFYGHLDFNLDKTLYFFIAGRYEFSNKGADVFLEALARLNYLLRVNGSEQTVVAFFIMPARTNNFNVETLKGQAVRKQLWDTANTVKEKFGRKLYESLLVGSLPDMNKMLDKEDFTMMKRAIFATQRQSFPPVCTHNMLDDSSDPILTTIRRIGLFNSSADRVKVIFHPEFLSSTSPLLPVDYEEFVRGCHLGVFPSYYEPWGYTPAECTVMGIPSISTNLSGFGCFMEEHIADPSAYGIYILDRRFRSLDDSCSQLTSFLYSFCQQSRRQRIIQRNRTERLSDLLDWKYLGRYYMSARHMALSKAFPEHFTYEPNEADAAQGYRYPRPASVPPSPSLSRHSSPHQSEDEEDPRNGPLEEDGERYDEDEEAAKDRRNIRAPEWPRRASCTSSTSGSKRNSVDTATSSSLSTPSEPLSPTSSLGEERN
Sequence of hGYS1 enzyme (recombinant hGYS1/GN1 protein) (P46976 whole entry partner): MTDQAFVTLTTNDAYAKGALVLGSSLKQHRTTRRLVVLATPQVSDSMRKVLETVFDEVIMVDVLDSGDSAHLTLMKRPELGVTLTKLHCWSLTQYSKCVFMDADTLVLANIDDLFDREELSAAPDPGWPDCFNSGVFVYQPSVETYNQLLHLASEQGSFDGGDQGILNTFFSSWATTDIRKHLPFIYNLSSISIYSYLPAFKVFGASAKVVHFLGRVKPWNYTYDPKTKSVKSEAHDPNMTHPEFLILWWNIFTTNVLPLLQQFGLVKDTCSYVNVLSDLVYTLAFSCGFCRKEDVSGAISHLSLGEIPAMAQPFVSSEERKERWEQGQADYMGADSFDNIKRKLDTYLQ

`CC(C)c1ccc(C(NC(=O)[C@@H]2C[C@@H](F)CN2C(=O)Cc2cnn[nH]2)c2ncc3ccccn23)nc1F` (single isomer, unassigned) [Compound 628, (2S,4R)-4-fluoro-N-[(R) or (S)-[6-fluoro-5-(propan-2-yl)pyridin-2-yl]({imidazo[1,5-a]pyridin-3-yl})methyl]-1-[2-(1H-1,2,3-triazol-5-yl)acetyl]pyrrolidine-2-carboxamide]: the pIC50 in test [1] is 5.56; in test [2] it was less than 4.52.
On the same counts, the results for `CC(C)c1ccc([C@@H](NC(=O)[C@@H]2C[C@@H](F)CN2C(=O)Cc2nn(C)c(=O)[nH]2)c2ccccc2)nc1F` [Compound 397, (2S,4R)-4-fluoro-N-[(S)-[6-fluoro-5-(propan-2-yl)pyridin-2-yl](phenyl)methyl]-1-[2-(1-methyl-5-oxo-4,5-dihydro-1H-1,2,4-triazol-3-yl)acetyl] pyrrolidine-2-carboxamide] are 8.05 and 6.40.
On to `O=C(N[C@@H](c1ccccc1)c1ccc(C2CC(F)(F)C2)c(F)n1)[C@@H]1C[C@@H](F)CN1C(=O)Cc1c[nH]c(=O)cn1` [Compound 530, (2S,4R)-N-[(S)-[5-(3,3-difluorocyclobutyl)-6-fluoropyridin-2-yl](phenyl)methyl]-4-fluoro-l-[2-(5-oxo-4,5-dihydropyrazin-2-yl)acetyl]pyrrolidine-2-carboxamide], for which the figures for the pIC50 in test [1] and in test [2] were 7.92 and 6.04, respectively.
`O=C(N[C@@H](c1ccccc1)c1ccc(C2CC(F)(F)C2)c(F)n1)[C@@H]1C[C@@H](F)CN1C(=O)Cc1nc(C(F)(F)F)co1` [Compound 528, (2S,4R)-N-[(S)-[5-(3,3-difluorocyclobutyl)-6-fluoropyridin-2-yl](phenyl)methyl]-4-fluoro-1-{2-[4-(trifluoromethyl)-1,3-oxazol-2-yl]acetyl}pyrrolidine-2-carboxamide]: the results for the pIC50 in test [1] and in test [2] were 7.82 and 6.48, respectively.
The corresponding values for `CCOc1ncc(CC(=O)N2C[C@H](F)C[C@H]2C(=O)N[C@@H](c2ccccc2)c2ccc(C(C)C)c(F)n2)cc1C` [Compound 798, (2S,4R)-1-[2-(6-ethoxy-5-methylpyridin-3-yl)acetyl]-4-fluoro-N-[(S)-[6-fluoro-5-(propan-2-yl)pyridin-2-yl](phenyl)methyl] pyrrolidine-2-carboxamide] are 7.92 and 6.66.
The corresponding values for `CCn1cc(C)cc(CC(=O)N2C[C@H](F)C[C@H]2C(=O)N[C@@H](c2ccccc2)c2ccc(C(C)C)c(F)n2)c1=O` [Compound 799, (2S,4R)-1-[2-(1-ethyl-5-methyl-2-oxo-1,2-dihydropyridin-3-yl)acetyl]-4-fluoro-N-[(S)-[6-fluoro-5-(propan-2-yl)pyridin-2-yl](phenyl)methyl] pyrrolidine-2-carboxamide] are 8.40 and 7.00.
The corresponding values for `Cn1ncc(C(F)F)c1CC(=O)N1C[C@H](F)C[C@H]1C(=O)N[C@@H](c1ccccc1)c1ccc(C2CC2)c(F)n1` [Compound 754, (2S,4R)-N-[(S)-(5-cyclopropyl-6-fluoropyridin-2-yl)(phenyl)methyl]-1-{2-[4-(difluoromethyl)-1-methyl-1H-pyrazol-5-yl]acetyl}-4-fluoropyrrolidine-2-carboxamide] are 7.57 and 6.38.
As to `Cc1cc(C(F)F)n(CC(=O)N2C[C@H](F)C[C@H]2C(=O)N[C@@H](c2ccccc2)c2ccc(C3CC3)c(F)n2)n1` [Compound 750, (2S,4R)-N-[(S)-(5-cyclopropyl-6-fluoropyridin-2-yl)(phenyl)methyl]-1-{2-[5-(difluoromethyl)-3-methyl-1H-pyrazol-1-yl]acetyl}-4-fluoropyrrolidine-2-carboxamide], the pIC50 in test [1] is 7.96; in test [2], 6.59.
